Experimental data reported in ChEMBL document CHEMBL4265932, “Advances in diarylpyrimidines and related analogues as HIV-1 nonnucleoside reverse transcriptase inhibitors” (Eur J Med Chem, 2018).
Values belong to the molecule of their own block, whether it stands above or below them.

Columns and labels:
[1] = Selectivity index, ratio of CC50 for human MT4 cells to EC50 for wild-type HIV1 3B reverse transcriptase infected in human MT4 cells; type: toxicity, cell-based; conditions: read-out: Ratio CC50/EC50
[2] = test system: Human immunodeficiency virus 1; test: Antiviral activity against wild-type HIV1 infected in human TZM-bl cells pretreated with cells for 30 mins followed by viral infection and measured after 48 hrs by luciferase reporter gene assay; type: functional, organism-based; conditions: Human immunodeficiency virus 1, TZM-bl
[3] = Selectivity index, ratio of CC50 for human TZM-bl cells to EC50 for wild-type HIV1 infected in human TZM-bl cells; type: toxicity, cell-based; conditions: read-out: Ratio CC50/EC50
[4] = biological target: T1, Human immunodeficiency virus type 1 reverse transcriptase (Human immunodeficiency virus 1, UniProt Q72547); test: Inhibition of wild-type HIV1 3B reverse transcriptase
[5] = biological target: T2, Human immunodeficiency virus type 1 reverse transcriptase (Human immunodeficiency virus 1, UniProt Q72547, K103N/Y181C); test: Inhibition of HIV1 RES056 reverse transcriptase K103N/Y181C double mutant
[6] = biological target: Human immunodeficiency virus type 1 reverse transcriptase (Human immunodeficiency virus 1, UniProt Q72547, L100I); test: Inhibition of recombinant HIV1 reverse transcriptase L100I mutant
[7] = biological target: Human immunodeficiency virus type 1 reverse transcriptase (Human immunodeficiency virus 1, UniProt Q72547, K103N); test: Inhibition of recombinant HIV1 reverse transcriptase K103N mutant
[8] = biological target: Human immunodeficiency virus type 1 reverse transcriptase (Human immunodeficiency virus 1, UniProt Q72547, Y181C); test: Inhibition of recombinant HIV1 reverse transcriptase Y181C mutant
[9] = biological target: Human immunodeficiency virus type 1 reverse transcriptase (Human immunodeficiency virus 1, UniProt Q72547, Y188L); test: Inhibition of recombinant HIV1 reverse transcriptase Y188L mutant
[10] = biological target: Human immunodeficiency virus type 1 reverse transcriptase (Human immunodeficiency virus 1, UniProt Q72547, K103N/L100I); test: Inhibition of recombinant HIV1 reverse transcriptase L100I/K103N double mutant
[11] = biological target: T2, Human immunodeficiency virus type 1 reverse transcriptase; test: Inhibition of recombinant HIV1 reverse transcriptase K103N/Y181C double mutant
[12] = biological target: T1, Human immunodeficiency virus type 1 reverse transcriptase; test: Inhibition of HIV1 reverse transcriptase

Compound: N#Cc1ccc(Nc2nccc(Oc3ccc4cc(C#N)ccc4c3Br)n2)cc1
- selectivity ratio [1]: 181000

- EC50 [2]: 1.6 nM
Compound: Cc1cc(/C=C/C#N)cc(C)c1Nc1ccc(F)c(Nc2ccc(C#N)cc2)n1
- selectivity ratio [3]: 62500

- EC50 [2]: 2.8 nM
Compound: Cc1cc(C#N)cc(C)c1Nc1ncc(F)c(Nc2ccc(C#N)cc2)n1
- selectivity ratio [3]: 36000

- EC50 [2]: 1 nM
Compound: Cc1cc(/C=C/C#N)cc(F)c1Nc1ccc(F)c(Nc2ccc(C#N)cc2)n1
- selectivity ratio [3]: > 100000

- EC50 [2]: 0.9 nM
Compound: Cc1cc(/C=C/C#N)cc(C)c1Nc1ncc(F)c(Nc2ccc(C#N)cc2)n1
- selectivity ratio [3]: > 42000

Compound: N#Cc1ccc(Nc2nccc(/C(=N\N)c3ccccc3Br)n2)cc1
- EC50 [4]: 1.7 nM
- EC50 [5]: > 9.2 µM

Compound: N#Cc1ccc(Nc2nccc(Oc3ccc4ccccc4c3Br)n2)cc1
- selectivity ratio [1]: 65600

Compound: Cc1cc(C)c(Nc2ccnc(Nc3ccc(C(N)=O)cc3)n2)c(C)c1
- IC50 [4]: 63.1 nM
- IC50 [6]: > 10000 nM
- IC50 [7]: > 10000 nM
- IC50 [8]: > 10000 nM
- IC50 [9]: > 10000 nM

Compound: N#Cc1ccc(Nc2nccc(/C(=N\N)c3ccc4ccccc4c3)n2)cc1
- EC50 [4]: 8.4 nM
- EC50 [5]: 8.4 µM

Compound: Cc1cc(C)c(Nc2ccnc(Nc3ccc(Cl)cc3)n2)c(C)c1
- IC50 [4]: 3.16 nM
- IC50 [6]: 200 nM
- IC50 [7]: 25.1 nM
- IC50 [8]: 79.4 nM
- IC50 [9]: 2510 nM
- IC50 [10]: > 10 µM

Compound: Cc1cc(C)c(Nc2ccnc(Nc3ccc(C#N)cc3)n2)c(C)c1 [DAPIVIRINE]
- IC50 [4]: 1 nM
- IC50 [6]: 15.8 nM
- IC50 [7]: 3.98 nM
- IC50 [8]: 7.94 nM
- IC50 [9]: 39.8 nM
- IC50 [10]: > 10 µM
- IC50 [11]: 39.8 nM

Compound: CC(=O)c1ccc(C)cc1NC(C(N)=O)c1c(Cl)cccc1Cl (stereo not drawn) [LOVIRIDE]
- EC50 [12]: 13 nM
